# Results reported in US20240130368A1, “HERBICIDAL COMPOSITION” (Nippon Soda Co., Ltd., priority 2021, published 2024).
# Where two headings read alike, the source gives them in different places.
# Legend:
# Type in all cases: in vivo
# Ambrosia artemisiifolia = assay: Test Example 1: seeds on filter paper moistened with chemical solution, herbicidal effect visually evaluated; details: visually evaluated 6 days after treatment; for pest or weed control at 0.2 ppm: amount of active ingredient 0.2 ppm
# Protocol: As the compound (1), 1-methoxy-3-methyl-6-(1,1-dioxido-8-(trifluoromethyl)thiochroman-5-yl)-7-oxa-3,4-diazabicyclo[4.1.0]hept-4-en-2-one (Compound (I-3)) was used.
# (§1) The compound (I) or compound (II) was prepared into a 5% emulsion using DMF (containing 1.5% Tween) and diluted with water to a prescribed dosage concentration. Commercially available preparations were dissolved in water and adjusted to a prescribed dosage concentration.
# (§2) Seeds were soaked in 0.6% sodium hypochlorite for a predetermined time for surface sterilization and washed with water for use (seed disinfection). Seeds of Ambrosia artemisiifolia were used for the test.
# (§3) Filter paper was placed on a cup (diameter: 10 cm, height: 4 cm) with a lid and moistened with 8 ml of chemical solution, and seeds were sown thereon, and after covering with a lid, grown in a constant temperature room.
# (§4) The herbicidal effects were visually evaluated, 6 days after the treatment, as the herbicidal effect (%), by comparing with a state of an untreated group using a total of 21 scores of withering index from 0 to 20 (0: mortality rate equivalent to that of the untreated group, 20: mortality rate of 100%).
# (§5) In addition, the expected values of the herbicidal effects were calculated from the herbicidal effects in a case where the compound (I) alone was applied and the herbicidal effects in a case where the compound (II) alone was applied by using the Colby's formula (Colby, S. R., Calculating synergistic and antagonistic responses of herbicide combinations, Weeds, 15, pp. 20-22 (1967)).
# (§6) M indicates an herbicidal effect (%) in the application of the compound (I) alone, N indicates an herbicidal effect (%) in the application of the compound (II) alone, and E indicates an expected value (%) of the herbicidal effect in the combined application of the compound (T) and the compound (TT). When the actual measured value (%) of the herbicidal effect in the combined application of the compound (I) and the compound (II) is greater than the expected value E, it can be regarded that the combined application of the compound (I) and the compound (II) has a synergistic effect.
# Triticum aestivum = assay: Test Example 5: spraying on the soil surface, herbicidal effect from above ground weight (useful plant); details: Flufenacet alone, 250 gai/ha, sprayed on the soil surface, seven weeks after spraying
# Protocol: (§7) POA allylphenyl ether (4.1 parts by weight), POE-POP glycol (1 part by weight), POE sorbitan laurate (0.8 parts by weight), glycerin (2.6 parts by weight), dimethylformamide (65.9 parts by weight), N-methylpyrrolidone (5.1 parts by weight), cyclohexanone (15.4 parts by weight), and aromatic hydrocarbons (5.1 parts by weight) were mixed and dissolved to prepare an emulsion. The active ingredient (4 mg) of the composition of the present invention was dissolved in this emulsion (100 μL) to prepare a test emulsion. It should be noted that POA means “polyoxyalkylene”, POE means “polyoxyethylene”, and POP means “polyoxypropylene”.
# (§8) For the evaluation of the herbicidal effects, the above ground weights of weeds in the untreated and treated areas were measured for each weed 3 weeks after spraying treatment, and the herbicidal effect (%) was calculated by the following calculation formula.
# (§9) Herbicidal effect (%)=[(above ground weight of weeds in untreated area)−(above ground weight of weeds in treated area)/(above ground weight of weeds in untreated area)]×100
# (§10) A test emulsion was prepared in the same manner as in Test Example 4.
# (§11) A 300 cm^2 pot was filled with soil, and seeds of Triticum aestivum, multidrug-resistant Alopecurus myosuroides, Lolium multiflorum and Avena fatua were sown into the surface layer, and covered with soil to a thickness of 0.5 to 1 cm. The above test emulsion was diluted so that the amount of the active ingredient became a predetermined amount, and sprayed on the soil surface at a spray water volume of 250 L per hectare, followed by growth in an outdoor environment.
# (§12) Seven weeks after spraying, the evaluation was carried out in the same manner as in Test Example 4, except that the above ground weights of weeds in the untreated and treated areas were measured for each weed.
# The following plants were used as useful plants [scientific names]. • Wheat [Triticum aestivum]
# Avena fatua = assay: Test Example 5: spraying on the soil surface, herbicidal effect from above ground weight; details: Flufenacet alone, 250 gai/ha, sprayed on the soil surface, seven weeks after spraying
# Protocol: as §7, §8, §9, §10, §11, §12
# (§13) The following grass species were used as grass species to be controlled [scientific names]. • Blackgrass * [Alopecurus myosuroides] • Italian ryegrass [Lolium multiflorum] • Wild oat [Avena fatua]
# Lolium multiflorum = assay: as above; details: Flufenacet alone, 250 gai/ha, sprayed on the soil surface, seven weeks after spraying
# Protocol: as §7, §8, §9, §10, §11, §12, §13
# [1] = tested on: multidrug-resistant Alopecurus myosuroides; assay: as above; details: Flufenacet alone, 250 gai/ha; sprayed on the soil surface; seven weeks after spraying; Alopecurus myosuroides multidrug-resistant strain
# Protocol: as §7, §8, §9, §10, §11, §12, §13
# Zea mays [2] = assay: Test Example 4: foliar spraying treatment, herbicidal effect from above ground weight (useful plant); details: 3 weeks after spraying
# Protocol: as §7
# (§14) A 300 cm^2 pot was filled with soil, and seeds of Zea mays, Setaria faberi, Sorghum halepense, Brachiaria platyphylla, Amaranthus palmeri, Senna obtusifolia and Ipomoea hederacea were sown into the surface layer, and then grown in a greenhouse after being covered lightly with soil. When each plant grew to a plant height of 7 to 11 cm, it was used for the test. The test emulsion was diluted so that the amount of the active ingredient became a predetermined amount, and sprayed on the foliage with a small sprayer at a spray water volume of 250 L per hectare.
# as §8
# In addition, the expected values of the herbicidal effects were calculated from the herbicidal effects in a case where the compound (I) alone was applied and the herbicidal effects in a case where the compound (II) alone was applied by using the Colby's formula (Colby, S. R., Calculating synergistic and antagonistic responses of herbicide combinations, Weeds, 15, pp. 20-22 (1967)). […]
# Amaranthus palmeri = assay: Test Example 4: foliar spraying treatment, herbicidal effect from above ground weight; details: 3 weeks after spraying
# Protocol: as §7, §14, §8, §5
# (§15) M indicates an herbicidal effect (%) in the application of the compound (1) alone, N indicates an herbicidal effect (%) in the application of the compound (II) alone, and E indicates an expected value (%) of the herbicidal effect in the combined application of the compound (I) and the compound (II). When the actual measured value (%) of the herbicidal effect in the combined application of the compound (I) and the compound (II) is greater than the expected value E, it can be regarded that the combined application of the compound (1) and the compound (II) has a synergistic effect.
# as §9
# (§16) The following grass species were used as grass species to be controlled [scientific names]. • Giant foxtail [Setaria faberi] • Johnson grass [Sorghum halepense] • Broadleaf signalgrass [Brachiaria platyphylla] • Palmer amaranth [Amaranthus palmeri] • Sicklepod [Senna obtusifolia] • Morning glory [Ipomoea hederacea]
# Brachiaria platyphylla = assay: as above; details: 3 weeks after spraying
# Protocol: as §7, §14, §8, §5, §15, §9, §16
# Ipomoea hederacea [3] = assay: as above; details: 3 weeks after spraying
# Protocol: as §7, §14, §8, §5, §15, §9, §16
# Senna obtusifolia = assay: as above; details: 3 weeks after spraying
# Protocol: as §7, §14, §8, §5, §15, §9, §16
# Setaria faberi = assay: as above; details: 3 weeks after spraying
# Protocol: as §7, §14, §8, §5, §15, §9, §16
# Sorghum halepense = assay: as above; details: 3 weeks after spraying
# Protocol: as §7, §14, §8, §5, §15, §9, §16
# Zea mays [4] = assay: Test Example 6: foliar spraying treatment, herbicidal effect from above ground weight (useful plant)
# Protocol: as §7, §10
# (§17) A 300 cm^2 pot was filled with soil, and seeds of Zea mays and Ipomoea hederacea were sown into the surface layer, and then grown in a greenhouse after being covered lightly with soil. When each plant grew to a plant height of 7 to 9 cm, the above test emulsion was diluted so that the amount of the active ingredient became a predetermined amount, and sprayed on the foliage with a small sprayer at a spray water volume of 250 L per hectare.
# (§18) Test Examples 6-1 and 6-3 were evaluated in the same manner as in Test Example 4.
# (§19) The expected values of the herbicidal effects in Test Example 6-2 were calculated using the following Colby's formula (Colby, S. R., Calculating synergistic and antagonistic responses of herbicide combinations, Weeds, 15, pp. 20-22 (1967)).
# (§20) X indicates an herbicidal effect (%) by applying the compound (1) alone, Y and Z each indicate an herbicidal effect (%) by applying one of the two types of the compounds (II) alone, and E indicates an expected value (%) of the herbicidal effect by applying combinations of the compound (I) and two types of the compounds (II).
# (§21) When the actual measured value (%) of the herbicidal effect by the combined application of the compound (I) and two types of the compounds (11) is greater than the expected value E, it can be regarded that the combined application of the compound (1) and two types of the compounds (II) has a synergistic effect.
# The following plants were used as useful plants [scientific names]. • Corn for animal feed [Zea mays]
# Ipomoea hederacea [5] = assay: Test Example 6: foliar spraying treatment, herbicidal effect from above ground weight
# Protocol: as §7, §10, §17, §18, §19, §20, §21
# The following grass species were used as grass species to be controlled [scientific names]. • Morning glory [Ipomoea hederacea]
# Abutilon theophrasti = assay: Test Example 3: seeds on filter paper moistened with chemical solution, herbicidal effect visually evaluated; details: 6 days after the treatment
# Protocol: as §1, §2, §3, §4, §5, §6
# The herbicidal effects were evaluated by the same method as in Test Example 1 except that the seeds used in the test were changed from Ambrosia artemisiifolia to Abutilon theophrasti.
# Digitaria ciliaris = assay: Test Example 2: seeds on filter paper moistened with chemical solution, herbicidal effect visually evaluated; details: Pinoxaden alone, 0.2 ppm, 6 days after the treatment
# [6] = Ambrosia artemisiifolia, 144 h, applied alone, amount of active ingredient 0.8 ppm, read-out: Herbicidal effect (%)
structure (smiles),measurement,setting,value
"CC(C)N(C(=O)COc1nnc(C(F)(F)F)s1)c1ccc(F)cc1 [Flufenacet, reference compound]",pest or weed control at 0.2 ppm,"Ambrosia artemisiifolia; Ambrosia artemisiifolia, 144 h, compound applied alone, read-out: Herbicidal effect (%)",20%
same,Actual measured value of herbicidal effect,Triticum aestivum,30%
same,Actual measured value of herbicidal effect,Avena fatua,60%
same,Actual measured value of herbicidal effect,Lolium multiflorum,70%
same,Actual measured value of herbicidal effect,[1],40%
CCOCN(C(=O)CCl)c1c(C)cccc1CC [Acetochlor],pest or weed control at 0.8 ppm,Ambrosia artemisiifolia; [6],40%
same,Actual measured value of herbicidal effect,"Zea mays [2]; Acetochlor alone, 1,000 gai/ha",0%
same,Actual measured value of herbicidal effect,"Amaranthus palmeri; Acetochlor alone, 1,000 gai/ha",50%
same,Actual measured value of herbicidal effect,"Brachiaria platyphylla; Acetochlor alone, 1,000 gai/ha",60%
same,Actual measured value of herbicidal effect,"Ipomoea hederacea [3]; Acetochlor alone, 1,000 gai/ha",20%
same,Actual measured value of herbicidal effect,"Senna obtusifolia; Acetochlor alone, 1,000 gai/ha",20%
same,Actual measured value of herbicidal effect,"Setaria faberi; Acetochlor alone, 1,000 gai/ha",70%
same,Actual measured value of herbicidal effect,"Sorghum halepense; Acetochlor alone, 1,000 gai/ha",60%
same,Actual measured value of herbicidal effect,"Zea mays [4]; Acetochlor alone, 2,000 gai/ha",0%
same,Actual measured value of herbicidal effect,"Ipomoea hederacea [5]; Acetochlor alone, 2,000 gai/ha",20%
"COC(=O)c1sccc1S(=O)(=O)NC(=O)Nc1nc(C)nc(OC)n1 [Thifensulfuron-methyl, reference compound]",Herbicidal effect,"Abutilon theophrasti; Thifensulfuron-methyl alone, 0.8 ppm",10%
CCNc1nc(Cl)nc(NC(C)C)n1 [Atrazine],pest or weed control at 200 ppm,"Ambrosia artemisiifolia; Ambrosia artemisiifolia, 144 h, applied alone, amount of active ingredient 200 ppm",10%
same,Actual measured value of herbicidal effect,"Zea mays [2]; Atrazine alone, 500 gai/ha",0%
same,Actual measured value of herbicidal effect,"Amaranthus palmeri; Atrazine alone, 500 gai/ha",100%
same,Actual measured value of herbicidal effect,"Brachiaria platyphylla; Atrazine alone, 500 gai/ha",0%
same,Actual measured value of herbicidal effect,"Ipomoea hederacea [3]; Atrazine alone, 500 gai/ha",100%
same,Actual measured value of herbicidal effect,"Senna obtusifolia; Atrazine alone, 500 gai/ha",30%
same,Actual measured value of herbicidal effect,"Setaria faberi; Atrazine alone, 500 gai/ha",100%
same,Actual measured value of herbicidal effect,"Sorghum halepense; Atrazine alone, 500 gai/ha",0%
"CCc1cc(C)cc(CC)c1-c1c(OC(=O)C(C)(C)C)n2n(c1=O)CCOCC2 [Pinoxaden, reference compound]",Herbicidal effect,Digitaria ciliaris,10%
"COc1nn(C(=O)[N-]S(=O)(=O)c2ccccc2OC(F)(F)F)c(=O)n1C.[Na+] [Flucarbazone-Sodium, reference compound]",Herbicidal effect,"Abutilon theophrasti; Flucarbazone-Sodium alone, 3.1 ppm",20%
Cn1nc(C(F)(F)F)c(CS(=O)(=O)C2=NOC(C)(C)C2)c1OC(F)F [Pyroxasulfone],pest or weed control at 0.2 ppm,"Ambrosia artemisiifolia; Ambrosia artemisiifolia, 144 h, applied alone, read-out: Herbicidal effect (%)",30%
same,Actual measured value of herbicidal effect,"Zea mays [4]; Pyroxasulfone alone, 94 gai/ha",0%
same,Actual measured value of herbicidal effect,"Ipomoea hederacea [5]; Pyroxasulfone alone, 94 gai/ha",60%
O=C(O)c1nc(Cl)ccc1Cl [Clopyralid],pest or weed control at 12.5 ppm,"Ambrosia artemisiifolia; Ambrosia artemisiifolia, 144 h, applied alone, amount of active ingredient 12.5 ppm, read-out: Herbicidal effect (%)",90%
same,Actual measured value of herbicidal effect,"Zea mays [4]; Clopyralid alone, 125 gai/ha",0%
same,Actual measured value of herbicidal effect,"Ipomoea hederacea [5]; Clopyralid alone, 125 gai/ha",30%
CCOC(=O)C(Cl)Cc1cc(-n2nc(C)n(C(F)F)c2=O)c(F)cc1Cl (centres unmarked) [Carfentrazone-ethyl],pest or weed control at 0.8 ppm,"Ambrosia artemisiifolia; Ambrosia artemisiifolia, 144 h, read-out: Herbicidal effect (%), applied alone, amount of active ingredient 0.8 ppm",50%
COc1cc(OC)nc(NC(=O)NS(=O)(=O)c2cc(NC=O)ccc2C(=O)N(C)C)n1 [Foramsulfuron],pest or weed control at 0.8 ppm,Ambrosia artemisiifolia; [6],65%
COC(=O)c1nc(-c2ccc(Cl)c(OC)c2F)cc(N)c1Cl [Halauxifen-methyl],Herbicidal effect (%),"Ambrosia artemisiifolia; compound applied alone, amount of active ingredient 0.012 ppm",70%
CC(C)c1nn(C(=O)NC(C)(C)C)c(=O)n1N [Amicarbazone],Herbicidal effect (%),"Ambrosia artemisiifolia; applied alone, amount of active ingredient 50 ppm",0%
Cc1ccc(NC(=O)N(C)C)cc1Cl [Chlorotoluron],pest or weed control at 50 ppm,"Ambrosia artemisiifolia; Ambrosia artemisiifolia, 144 h, applied alone, amount of active ingredient 50 ppm, read-out: Herbicidal effect (%)",40%
C/C(=N\NC(=O)Nc1cc(F)cc(F)c1)c1ncccc1C(=O)[O-].[Na+] [Diflufenzopyr-sodium],Herbicidal effect (%),"Ambrosia artemisiifolia; compound applied alone, amount of active ingredient 12.5 ppm",20%
